Assay results taken from patent US8361984B2, “Small interfering RNAs and methods for prevention, inhibition and/or treatment of malignant progression of breast cancer” (Taipei Medical University, priority 2011, dated 2013).
Where two headings read alike, the source gives them in different places.

Columns and labels:
MDA-MB-231 cells [1] = experiment: MTT cell proliferation assay in MDA-MB-231 cells (parental, Sc, Si α5, Si α9); format: cell-based, human
Excerpt: A) Detection of nAChR subunits by reverse transcription-polymerase chain reaction (RT-PCR) in normal and cancerous human breast cell lines. MCF-7, MDA-MB-231, AU-565, MDA-MB-453, and BT-483 are transformed human breast cancer cells; MCF-10A and HBL-100 are considered normal human breast cells. The expression profiles of nAChR subunits in human SAEC (small airway epithelial), NHBE (normal human bronchial epithelial), and H157 (lung cancer) cells were also examined as described previously (West K A, Brognard J, Clark A S, et al. J Clin Invest 2003; 111(1):81-90). B) Relative mRNA expression of different nAChR subunits in normal and tumor human breast tissues isolated from 50 breast cancer patients. The cDNA was used for RT-PCR analysis and the experiment was repeated twice. Percent of occurrence is shown. C) Expression of the α5 and α9 nAChR subunits in stable MDA-MB-231 cell lines that express α9-nAChR (Si α9), α5-nAChR (Si α5), or scrambled (Sc) short interfering RNAs (siRNAs). […] Levels of α5 and α9 mRNAs were determined by RT-PCR, and levels of the α5 and α9 proteins by western blotting (WB). In each case, glyceraldehyde 3-phosphate dehydrogenase (GADPH) expression served as a control. D) Cell proliferation in Si α5, Sc, and parental MDA-MB-231 cells treated with dimethylsulfoxide DMSO vs nicotine, and in cells treated with DMSO vs the nicotine metabolite, 4-(methylnitrosamino)-1-(3-pyridyl)-1-butanone (NNK). Parental MDA-MB-231 cells (231) and 231 cells stably transformed the Si α5-, Sc-, or Si α9-siRNAs were treated with either nicotine (10 μM), NNK (1 μM), or vehicle alone in the absence of continued G418 selection afterwards. […] Cell proliferation was measured by the 3-(4,5-dimethylthiazol-2-yl)-2,5-diphenyltetrazolium (MTT) assay, in which a greater number of cells was reflected by an increased OD540 nm at the indicated time points. The experiment was repeated four times with duplicate samples. Data points represent the mean; error bars indicate 95% confidence intervals. The data were analyzed by nonparametric two-sided tests (Kruskal-Wallis and Mann-Whitney tests). […] E) Confocal microscopy of α9-nAChR expression in human breast cancer (MCF-7) cells. Immunofluorescence with a fluorescein isothiocyate-conjugated secondary antibody was used to detect the α9-nAChR, whereas a rhodamine-conjugated fluorescent antibody was used for caveolin-1 labeling. Localization of α9-nAChR (left, green), the membrane protein caveolin-1 (middle, red), and the merged image (right, yellow) are shown. Scale bar=25 μm. F) Dose-dependent binding of [^3H]-nicotine to the endogenous α9-nAChR receptor in human breast cancer MDA-MB-231 cells (left panel) and time-dependent [^3H]-nicotine binding in parental MDA-MB-231 cells (231), or in 231 cells stably transformed with α9-nAChR siRNA (Si α9) or scrambled control (Sc) siRNA (right panel). The experiment was repeated four times with duplicate samples. Data points represent the mean; error bars indicate the 95% confidence intervals. […] G) Analysis of α9-nicotinic acetylcholine receptor (α9-nAChR) expression in human breast carcinoma tissues. Determination of α9-nAChR mRNA levels using reverse transcription-polymerase chain reaction (RT-PCR). […] PCR was performed for 30 cycles.
(§1) Cell growth, proliferation, and viability were determined using the 3-(4,5-dimethylthiazol-2-yl)-2,5-diphenyltetrazolium (MTT) assay (Chou Y H, Ho Y S, Wu C C, et al. Food Chem Toxicol 2007; 45(8):1356-67.) Stock solutions of 10 mM nicotine and NNK (Chemsyn, Lenexa, Kans.) were prepared in dimethyl sulfoxide (DMSO). This assay was repeated four times with duplicate samples.

MDA-MB-231 cells [2] = experiment: Soft agar growth assay of MDA-MB-231 cells; format: cell-based, human; conditions: parental MDA-MB-231 cells; nicotine 10 μM or NNK 1 μM
Excerpt: (§2) The experiment was repeated four times with duplicate samples.
The assay was repeated four times with duplicate samples.

MCF-10A (DOX) cells [3] = experiment: MTT cell proliferation assay in MCF-10A (DOX) cells; format: cell-based, human; conditions: nicotine 10 μM, NNK 1 μM; DOX+ vs DOX− cells
Experimental: Data points represent the mean; error bars indicate 95% confidence intervals. […] The experiment was repeated four times with duplicate samples. […] After transplantation, mice bearing tumors were treated with DOX (0.5 mg/mL) via drinking water for 14 days. After that, all mice bearing tumors (200 mm^3) were divided into either α9-nAChR mRNA expressing (DOX−) or non-expressing (DOX+) groups in the presence or absence of nicotine (10 mg/mL) in their drinking water (n=5, per group). […] Error bars represent 95% confidence intervals.
as §1

MCF-10A (DOX) cells [4] = experiment: Long-term transformation of MCF-10A (DOX) cells, soft agar colony formation; format: cell-based, human; conditions: soft agar 21 days
Excerpt: Anchorage-independent growth of α9-nAChR overexpressing (MCF-10A-Nic (DOX) and MCF-10A-NNK (DOX)) and siRNA-expressing MDA MB-231 Si α5, Si α9, and Sc cells were examined in soft agar assays. The base layer consisted of 0.9% low-melting point SeaPlaque agarose (Sigma, St. Louis, Mo.) in complete MCF-10A culture medium. Soft agar was composed of 0.4% SeaPlaque agarose in complete DMEM and F12 culture medium was mixed with 1×10^4 cells and plated on top of the base layer in 60-mm-diameter culture dishes. […] Soft agar cultures were maintained at 37° C. for an additional 21 days and observed for the appearance of colonies with a Leica DMI 4000B Microscope Imaging System (Leica Microsystems, Wetzlar, Germany). The assay was repeated four times with duplicate samples.

[5] = target: T1, endogenous α9-nAChR receptor in human breast cancer MDA-MB-231 cells (Homo sapiens, UniProt Q9UGM1); experiment: [^3H]-nicotine equilibrium binding in MDA-MB-231 cells
T1 construct: endogenous α9-nAChR receptor in human breast cancer MDA-MB-231 cells; endogenous in cells; host or cells: MDA-MB-231 (parental, Sc and Si α9 clones)
Experimental: L-(−)-[N-methyl-^3H]-nicotine (71-75 Ci/mmol) was purchased from Dupont/NEN Research Products (Boston, Mass.), and free base nicotine (99% pure) was purchased from the Eastman Kodak Co. (Rochester, N.Y.). To study the uptake of [^3H]-nicotine in MDA-MB-231 cell monolayers (2×10^6 cells per well), cells were rinsed three times with a buffer containing 140 mM NaCl, 5.4 mM KCl, 1.8 mM CaCl2, 0.8 mM MgSO4, 5 mM glucose, and 25 mM Hepes (pH 7.4). Saturation binding studies were conducted for 2 hours at 37° C. in six-well plates, and used at least eight different concentrations of [^3H]-nicotine ranging from 1 to 15 nM. Time-dependent association kinetic studies in MDA-MB-231, Si α9, Sc cells were conducted using a single concentration of [^3H]-nicotine (7 nM) for treatments of 5, 10, 15, 30, 60 and 90 minutes. For determination of nonspecific binding, 10 μM unlabeled nicotine was pre-added to medium, after which cells were washed three times with ice-cold buffer and then exposed to [^3H]-nicotine. [^3H]-nicotine uptake was stopped by aspiration of the uptake medium and washing the wells three times with ice-cold buffer. The cells were lysed in 1 mL of 0.5% Triton X-100, and aliquots of the cell lysates were transferred to scintillation vials to determine the incorporated radioactivity by scintillation counting. The assay was repeated four times with duplicate samples.

[6] = tested on: MDA-MB-231 tumor xenografts; experiment: MDA-MB-231 α9-nAChR siRNA-expressing xenografts in NOD-SCID mice; format: in vivo, mouse
Excerpt: as §2

[7] = tested on: MCF-10A-Nic (DOX) xenografts; conditions: after 7 weeks; for tumor volume: with nicotine 10 mg/mL drinking water
Experimental: BALB/c-nu/nu mice (female, 4 weeks old, n=5 per group) purchased from National Science Council Animal Center, Taipei, were injected subcutaneously with MCF-10A-Nic (DOX) and vector control (5×10^6) cells. After transplantation, mice bearing tumors were treated with DOX (0.5 mg/mL) via drinking water for 14 days. After that, all mice bearing tumors (200 mm^3) were divided into either α9-nAChR mRNA expressing (DOX−) or non-induced (DOX+) groups, the latter of which could express the α9-nAChR mRNA at basal level. The mice were simultaneously treated with or without nicotine (10 mg/mL) in their drinking water for an additional 6 weeks. The xenografts were weighed and either snap-frozen in dry ice and stored at −80° C. for RNA and protein analysis or formalin-fixed and paraffin-embedded for immunohistochemical observation.
Examination was conducted as to whether induction of α9-nAChR in the presence or absence of nicotine stimulation in vivo would effectively promote tumor growth (FIG. 6). BALB/c-nu/nu mice (female, 4 weeks old) were injected subcutaneously with transformed MCF-10A-Nic (DOX) cells (5×10^6). After that, all mice bearing tumors (200 mm^3) were divided into either α9-nAChR mRNA expressing (DOX−) or non-expressing (DOX+) groups in the presence or absence of nicotine (10 mg/mL) in their drinking water (n=5, per group).

[8] = Sc cells, day 11, nicotine 10 μM, NNK 1 μM
[9] = Si α5 cells, day 11, nicotine 10 μM, NNK 1 μM
[10] = nicotine-treated (10 mg/mL drinking water) mice with parental MDA-MB-231 tumors

T1 sequence (Q9UGM1 26-479 limits assumed): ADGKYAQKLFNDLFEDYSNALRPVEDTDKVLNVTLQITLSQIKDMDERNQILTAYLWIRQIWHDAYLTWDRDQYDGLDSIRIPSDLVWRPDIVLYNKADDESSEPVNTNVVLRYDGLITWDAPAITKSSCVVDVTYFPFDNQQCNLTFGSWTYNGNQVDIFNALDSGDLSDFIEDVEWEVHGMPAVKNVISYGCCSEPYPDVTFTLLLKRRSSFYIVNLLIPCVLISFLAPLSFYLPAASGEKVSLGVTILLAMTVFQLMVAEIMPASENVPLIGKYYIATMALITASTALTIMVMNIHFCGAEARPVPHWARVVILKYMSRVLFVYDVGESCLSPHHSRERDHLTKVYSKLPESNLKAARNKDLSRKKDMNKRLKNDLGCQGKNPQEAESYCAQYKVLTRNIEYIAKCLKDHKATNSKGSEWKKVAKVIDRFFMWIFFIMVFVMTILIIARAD

SMILES | difference in mean OD540 nm vs control (DMSO) (MDA-MB-231 cells [1]; [8]) | mean OD540 nm (MDA-MB-231 cells [1]; [8]) | difference in mean OD540 nm vs control (DMSO) (MDA-MB-231 cells [1]; [9]) | mean OD540 nm (MDA-MB-231 cells [1]; [9]) | no. of colonies in parental cells (MDA-MB-231 cells [2]) [colonies] | induction of cell proliferation (MCF-10A (DOX) cells [3]) | colonies formed, DOX− compared with DOX+ cells (MCF-10A (DOX) cells [4]; NNK 1 μM for 60 days) | time at which maximum binding activity is attained ([5]; MDA-MB-231 cells, [^3H]-nicotine 7 nM) [min] | Kd ([5]; MDA-MB-231 cells, saturation binding 2 hours at 37° C., read-out: dissociation constant (Kd) of [^3H]-nicotine binding) [nM] | [^3H]-nicotine bound by parental cells ([5]; parental MDA-MB-231 cells) [DPM] | difference in mean OD540 nm vs control (DMSO) (MDA-MB-231 cells [1]) | mean OD540 nm (MDA-MB-231 cells [1]) | tumor weight in nicotine-fed mice ([6]; mice injected with MDA-MB-231 (231) or Sc cells (FIG. 3D)) | tumor volume at 6 weeks treatment [6, 10] [mm^3] | tumor weight at 6 weeks [6, 10] [g] | colonies formed in soft agar (MCF-10A (DOX) cells [4]; MCF-10A (DOX−) cells, nicotine 10 μM for 60 days) | difference in tumor volume, with vs without nicotine ([7]; +DOX) [mm^3] | tumor volume ([7]; +DOX) [mm^3] | difference in tumor volume, with vs without nicotine ([7]; −DOX) [mm^3] | tumor volume ([7]; −DOX) [mm^3]
CN(CCCC(=O)c1cccnc1)N=O [NNK, 4-(methylnitrosamino)-1-(3-pyridyl)-1-butanone] | 1.00 | 1.77 | 0.99 | 1.78 | 406 | induced cell proliferation was observed only in the MCF-10A (DOX+) cell line | More colonies | – | – | – | – | – | – | – | – | – | – | – | – | –
CN1CCCC1c1cccnc1 [[^3H]-nicotine, L-(−)-[N-methyl-^3H]-nicotine] | – | – | – | – | – | – | – | 60 | 3 | 489.7 | – | – | – | – | – | – | – | – | – | –
CN1CCCC1c1cccnc1 (stereo not shown) [nicotine] | – | – | – | – | 341 | induced cell proliferation was observed only in the MCF-10A (DOX+) cell line | – | – | – | – | 0.58 | 1.35 | heavier | 2993.2 | 4.38 | six | 235.4 | 501.6 | 277.4 | 898.6
